Assay results taken from article PMC11641365, “Evaluation of In Vitro Biological Activity of Flavanone/Chromanone Derivatives: Molecular Analysis of Anticancer Mechanisms in Colorectal Cancer” (International Journal of Molecular Sciences, 2024).

Experiments:
Format in all cases: cell-based, human
Caco-2 [1] = test: Mitochondrial membrane potential (ΔΨm), JC-1 probe; conditions: compound at IC50, vs control
From the text: (§1) Changes in mitochondrial potential in cancer cells exposed to the tested derivatives were monitored using the fluorescent probe JC-1. In non-apoptotic cells, JC-1 aggregates emit red-orange fluorescence. During changes in mitochondrial membrane potential, such as those associated with the initiation of PCD stages (both hyperpolarization and depolarization of mitochondrial membranes), JC-1 is converted to monomers, emitting green fluorescence.
(§2) 5,5,6,6-Tetrachloro-1,1,3,3-tetraethylbenzimidazolylcarbocyanine iodide (JC-1) is one of the most reliable fluorescent probes used to assess changes in mitochondrial membrane potential (ΔΨ). In living cells with intact mitochondrial membranes, the lipophilic, cationic dye JC-1 penetrates the negatively charged mitochondrial matrix as a monomer, where it forms fluorescent aggregates with red-orange fluorescence (λex = 514 nm, λem = 590). […] The fluorescence ratio of aggregates (λem = 590 nm) and monomers (λem = 529 nm)—590 nm/529 nm—reflects the level of damage to the mitochondrial membrane.
(§3) Cells were seeded in black 96-well fluorometric microplates at a density of 10 × 10^3 cells/mL. […] Following treatment, the medium was removed, and the cell monolayers were washed twice with HBSS (140 mM NaCl, 5 mM KCl, 0.8 mM MgCl2, 1.8 mM CaCl2, 1 mM Na2HPO4, 10 mM HEPES, and 1% glucose). Then, 50 μL of a JC-1 solution in HBSS was added to each well, and the cells were incubated for 30 min in the dark at 37 °C (final JC-1 concentration 5 μM). After removing the fluorescent dye and replacing it with fresh HBSS, fluorescence measurements were taken using a Perkin-Elmer LS-5B spectrofluorometer (Perkin-Elmer LS-5B spectrofluorometer, Waltham, MA, USA). The excitation and emission wavelengths for JC-1 monomers were 514 nm and 529 nm, respectively, while for aggregates, they were 514 nm and 590 nm. The results were expressed as a percentage change in the fluorescence ratio of JC-1 aggregates to JC-1 monomers compared to the control, which was set at 100%.

HCT 116 [2] = test: Mitochondrial membrane potential (ΔΨm), JC-1 probe; conditions: compound at IC50, vs control
From the text: as §1, §2, §3

LoVo = test: Mitochondrial membrane potential (ΔΨm), JC-1 probe; conditions: compound at IC50, vs control
From the text: as §1, §2, §3

Caco-2 [3] = test: Superoxide anion level, DHE probe; conditions: compound at IC50, 24 h, vs control
Description: (§4) Superoxide anion (O2^•−) levels were quantified using a microplate spectrofluorometric assay with dihydroethidium (DHE) (Life Technologies, Carlsbad, CA, USA). DHE is a well-established fluorogenic probe for intracellular superoxide detection. […] The reaction between superoxide and DHE produces a highly specific red fluorescent product, 2-hydroxyethidium (2-OH-E ^+).
(§5) Cells were seeded in black 96-well fluorometric microplates at a density of 10 × 10^3 cells/mL. […] Following compound incubation, the medium was removed, and the cell monolayers were washed twice with HBSS (140 mM NaCl, 5 mM KCl, 0.8 mM MgCl2, 1.8 mM CaCl2, 1 mM Na2HPO4, 10 mM HEPES, and 1% glucose). A volume of 50 µL of DHE solution in HBSS (final concentration 5 μM) was added to each well, and the cells were incubated for 30 min in the dark at 37 °C. After incubation with the DHE, fluorescence measurements were conducted using a Perkin-Elmer LS-5B spectrofluorometer (Waltham, MA, USA) at the following excitation and fluorescence emission wavelengths: λex = 498 nm/λem = 582 nm. The fluorescence intensity of control cells was arbitrarily assigned a value of 100%. The results were expressed as percentages of control, calculated by comparing the fluorescence intensity ratio of the test samples to controls (100%). The fluorescence of samples was denoted as Δf in relation to the control.

HCT 116 [4] = test: Superoxide anion level, DHE probe; conditions: compound at IC50, 24 h, vs control
Description: as §4, §5

SW620 [5] = test: Superoxide anion level, DHE probe; conditions: compound at IC50, 24 h, vs control
Description: as §4, §5

Caco-2 [6] = test: Intracellular GSH level, monochlorobimane (MCB) probe; conditions: compound at IC50, 24 h, vs control
Description: The spectrofluorimetric method with monochlorobimane (MCB; Sigma-Aldrich; St. Louis, MO, USA) was used to determine GSH. Monochlorobimane reacts with glutathione in a reaction catalyzed by cellular glutathione S-transferase. The reaction produces a fluorescent bimane-glutathione conjugate (GSH-MCB). A major advantage of MCB is its ability to penetrate the cell membrane, which is why it is used as a probe to determine the amount of GSH in living cells.
Cells were seeded in black 96-well fluorometric microplates at a density of 10 × 10^3 cells/mL. […] Following compound incubation, the medium was removed, and the cell monolayers were washed twice with HBSS (140 mM NaCl, 5 mM KCl, 0.8 mM MgCl2, 1.8 mM CaCl2, 1 mM Na2HPO4, 10 mM HEPES, and 1% glucose). A solution of MCB at a final concentration of 40 μM was added to each well and incubated in a CO2 cell culture incubator at 37 °C for 20 min. A 40 mM MCB stock solution was prepared by dissolving 9 mg of the reagent in 1 mL of absolute ethanol. Fluorescence was measured using a Perkin-Elmer LS-5B spectrofluorometer (Waltham, MA, USA) at the following excitation and fluorescence emission wavelengths: λex = 380 nm/λem = 470 nm. After incubation with MCB, the cells were lysed with 50 μL of lysis buffer (10 mM TRIS-HCl; pH 8 containing 0.1% Triton X-100). In order to normalize the number of cells in individual samples, the amount of DNA was determined by adding 50 μL of ethidium bromide (EB, final concentration 0.2 mM) to each well after measuring the MCB fluorescence and measuring the EB fluorescence at an excitation wavelength of λex = 530 nm and an emission wavelength of λem = 590 nm. The results obtained using the standard curve were converted to nM of GSH.

SW620 [7] = test: MTT test after pre-incubation with antioxidants NAC or Trolox; conditions: vs cells without antioxidant pre-incubation
Description: Moreover, the elevation of ROS levels was accompanied by a decrease in intracellular GSH. To investigate the role of ROS in the cytotoxic activity of flavonoid derivatives against cancer cells, LoVo cancer cells were pre-treated with antioxidants, NAC or a water-soluble derivative of vitamin E (Trolox), for 1 h before exposure to the studied compounds. Subsequently, the MTT assay was performed.
To elucidate the involvement of ROS in the cytotoxic effects of the investigated compounds, cells were pre-treated with the vitamin E (Trolox, Sigma-Aldrich, St. Louis, MO, USA) or N-Acetylcysteine (NAC) antioxidants for 1 h. Cells were seeded into sterile, colorless 96-well microplates at a density of 6–8 × 10^3 cells/mL, contingent upon the cell line. Following a 24 h culture period, Trolox or NAC was added at a final concentration of 50 μM and 3 mM, respectively. After 1 h of incubation, the antioxidants were removed by washing, and test compounds were administered at appropriate concentrations (10–200 μM) in fresh cell culture medium, followed by a 24 h incubation. The MTT assay was then conducted under identical experimental conditions, as detailed in Section 2.2.

| SMILES | Decrease in ΔΨm (depolarization) (Caco-2 [1]) | Change in mitochondrial membrane potential ΔΨm (HCT 116 [2]) | Decrease in ΔΨm (depolarization) (LoVo) | Increase in O2−• (superoxide anion) levels (Caco-2 [3]) [%] | Increase in O2−• (superoxide anion) levels (HCT 116 [4]) | Increase in O2−• (superoxide anion) levels (SW620 [5]) | Decrease in GSH levels (Caco-2 [6]) | Change of the IC50 value after pre-incubation with Trolox (SW620 [7]) |
| --- | --- | --- | --- | --- | --- | --- | --- | --- |
| O=C1/C(=C/c2ccccc2)COc2ccccc21 [Compound 1] | ~ 30% | no statistically significant changes | ~ 20% | 30 | 10–15% | 10–15% | 25–30% |  |
| O=C1/C(=C/c2ccccc2)C(c2ccccc2)Oc2ccccc21 (centres unmarked) [Compound 5] |  |  |  |  |  |  |  | Statistically significant increases in the IC50 value |
